target: Keap1 (Homo sapiens (Human), UniProt Q14145); experiment: HEK293 ARE luciferase assay; assay type: cell-based; details: HEK-293 ARE firefly luciferase transiently transfected cells; 18 h incubation; mean of 1 to 20 individual measurements
Source text: The purpose of this assay is to identify small molecule inhibitors of Keap1, preventing Keap1 binding to Nrf2, and thus activating the Nrf2 signalling pathway in HEK-293 ARE firefly luciferase transiently transfected cells. HEK-293 cells express wild-type Keap1 protein and therefore have low constitutive levels of Nrf2 protein and Nrf2-dependent transcription. […] When Keap1 is inhibited, Nrf2 signalling is activated, and there is an increase in luciferase expression and light emission.
Cryopreserved HEK ARE luciferase cells were rapidly thawed in a 37° C. water bath and resuspended in assay culture medium (DMEM, 10% FCS, 2 mM L-glutamine). The cell suspension was pelleted by centrifugation ([…]; 300 g) using a Heraeus benchtop centrifuge. Supernatant was removed and the pellet was gently resuspended in 5 mL culture medium per vial. Cell viability and cell number was measured using an Invitrogen Countess automated cell counter (typical viability 80%), and cells were diluted to a density of 5.0×10^5 cells/mL.
Cells were then plated out into white 384-well plates (Greiner 781080) using a Multidrop Combi, 20 μL/well, to give 10,000 cells/well. As appropriate, test compounds had been added to wells prior to dispensing cells using an Echo 555 acoustic dispenser (Labcyte). Plates were left at room temperature for ˜10 min to promote even cell settling across the plate before incubation for 18 h at 37° C., 95% humidity and 5% CO2.
After 18 h incubation, plates were removed from the incubator and allowed to cool to room temperature for 30 min, before 10 μL per well SteadyGlo reagent detection reagent was added (as per manufacturer's instructions, 10 min before required 10 mL room temperature buffer was added to one vial of lyophilised substrate and inverted several times to fully dissolve). Plates were then incubated in the dark for 30 min before reading on an Envision plate reader.
Compounds were acoustically dispensed using a Labcyte Echo, using a 10 pt dose curve with a top concentration of 100 μM. Assay wells were backfilled with DMSO to a total of 60 nL to maintain 0.3% (v/v) DMSO through the assay.
The Stimulator signal was defined using 30 μM tert-butyl hydroquinone (tBHQ) and the Neutral signal by DMSO vehicle control. All calculations were performed using GeneData.
In IBIS Column Calculations, Assay Type was set to ‘Stimulator’, and the Activity Threshold was set to 50.
The mean values were calculated from anywhere from 1 to 20 individual measurements.

Keap1, sequence (Q14145 whole entry): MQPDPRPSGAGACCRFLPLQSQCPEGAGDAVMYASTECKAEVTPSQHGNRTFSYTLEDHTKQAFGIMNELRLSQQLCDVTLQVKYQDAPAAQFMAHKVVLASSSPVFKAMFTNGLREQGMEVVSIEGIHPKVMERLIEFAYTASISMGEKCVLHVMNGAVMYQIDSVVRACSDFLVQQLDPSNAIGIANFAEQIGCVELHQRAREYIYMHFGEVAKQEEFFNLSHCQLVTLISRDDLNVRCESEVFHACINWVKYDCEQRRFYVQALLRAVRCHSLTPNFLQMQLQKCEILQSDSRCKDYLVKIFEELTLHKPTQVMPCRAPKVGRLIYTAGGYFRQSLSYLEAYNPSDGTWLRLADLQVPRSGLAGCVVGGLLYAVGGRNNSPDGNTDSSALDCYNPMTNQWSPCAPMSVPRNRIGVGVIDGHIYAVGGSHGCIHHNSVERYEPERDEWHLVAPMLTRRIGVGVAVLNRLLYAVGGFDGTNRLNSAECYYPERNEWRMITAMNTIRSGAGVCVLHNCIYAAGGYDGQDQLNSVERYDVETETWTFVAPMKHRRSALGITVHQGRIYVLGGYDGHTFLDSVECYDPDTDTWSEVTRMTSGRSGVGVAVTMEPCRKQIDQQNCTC

| Structure (SMILES) | EC50 [nM] |
| --- | --- |
| CO[C@]1(c2ncc(F)cc2-c2ccns2)C=C(C#N)C(=O)C(C)(C)C1 [Compound 80, (S)-3-(5-fluoro-3-isothiazol-5-yl-2-pyridyl)-3-methoxy-5,5-dimethyl-6-oxo-cyclohexene-1-carbonitrile] | 2 |
| COC1(c2ncc(F)cc2-c2cncc(S(=O)(=O)C(C)C)c2)C=C(C#N)C(=O)C(C)(C)C1 (single isomer, unassigned) [Compound 221, 3-{5-fluoro-5′-[(propan-2-yl)sulfonyl][3,3′-bipyridin]-2-yl}-3-methoxy-5,5-dimethyl-6-oxocyclohex-1-ene-1-carbonitrile] | 8 |
| COC1(c2cccc(-c3ccnn3C)n2)C=C(C#N)C(=O)C2(CC2)C1 (single isomer, unassigned) [Compound 53, 7-methoxy-7-(6-(1-methyl-1H-pyrazol-5-yl)pyridin-2-yl)-4-oxospiro[2.5]oct-5-ene-5-carbonitrile] | 133 |
| COC1(c2ncc(Cl)cc2Cl)C=C(C#N)C(=O)C(C)(C)C1 (single isomer, unassigned) [Compound 225, 3-(3,5-dichloropyridin-2-yl)-3-methoxy-5,5-dimethyl-6-oxocyclohex-1-ene-1-carbonitrile] | 12 |
| COC1(c2ncc(F)cc2-c2c(C)nn(C)c2C)C=C(C#N)C(=O)C(C)(C)C1 (centres unmarked) [Compound 187, 3-[5-fluoro-3-(1,3,5-trimethyl-1H-pyrazol-4-yl)pyridin-2-yl]-3-methoxy-5,5-dimethyl-6-oxocyclohex-1-ene-1-carbonitrile] | 77 |
| COC1(c2sccc2C)C=C(C#N)C(=O)C(C)(C)C1 (single isomer, unassigned) [Compound 34, 3-methoxy-5,5-dimethyl-3-(3-methylthiophen-2-yl)-6-oxocyclohex-1-enecarbonitrile] | 12 |
| COC1(c2ncc(F)cc2-c2cnn3c2CCC3)C=C(C#N)C(=O)C(C)(C)C1 (single isomer, unassigned) [Compound 231, 3-[3-(5,6-dihydro-4H-pyrrolo[1,2-v]pyrazol-3-yl)-5-fluoropyridin-2-yl]-3-methoxy-5,5-dimethyl-6-oxocyclohex-1-ene-1-carbonitrile] | 16 |
| COC1(c2ncc(F)cc2-c2cn(C)nc2C)C=C(C#N)C(=O)C(C)(C)C1 (single isomer, unassigned) [Compound 78, 3-[3-(1,3-dimethylpyrazol-4-yl)-5-fluoro-2-pyridyl]-3-methoxy-5,5-dimethyl-6-oxo-cyclohexene-1-carbonitrile] | 2 |
| COC1(c2ncc(F)cc2C)C=C(C#N)C(=O)C2(CCCC2)C1 (centres unmarked) [Compound 153, 9-(5-fluoro-3-methylpyridin-2-yl)-9-methoxy-6-oxospiro[4.5]dec-7-ene-7-carbonitrile] | 7090 |
| COC1(c2ncc(F)cc2-c2cnn(C)c2)C=C(C#N)C(=O)C(C)(C)C1 (single isomer, unassigned) [Compound 69, 3-[5-fluoro-3-(1-methyl-1H-pyrazol-4-yl)pyridin-2-yl]-3-methoxy-5,5-dimethyl-6-oxocyclohex-1-ene-1-carbonitrile] | 2 |
| COC1(c2ncc(F)cc2C#CC(C)C)C=C(C#N)C(=O)C(C)(C)C1 (centres unmarked) [Compound 165, 3-[5-fluoro-3-(3-methylbut-1-yn-1-yl)pyridin-2-yl]-3-methoxy-5,5-dimethyl-6-oxocyclohex-1-ene-1-carbonitrile] | 151 |
| CO[C@]1(c2ncc(C)s2)C=C(C#N)C(=O)C(C)(C)C1 [Compound 40, (S)-3-methoxy-5,5-dimethyl-3-(5-methylthiazol-2-yl)-6-oxocyclohex-1-enecarbonitrile] | 38 |
| CCn1cc(-c2cc(F)cnc2C2(OC)C=C(C#N)C(=O)C(C)(C)C2)cn1 (centres unmarked) [Compound 181, 3-[3-(1-ethyl-1H-pyrazol-4-yl)-5-fluoropyridin-2-yl]-3-methoxy-5,5-dimethyl-6-oxocyclohex-1-ene-1-carbonitrile] | 68 |
| COC1(c2ncccc2C(F)F)C=C(C#N)C(=O)C(C)(C)C1 (centres unmarked) [Compound 124, 3-[3-(difluoromethyl)pyridin-2-yl]-3-methoxy-5,5-dimethyl-6-oxocyclohex-1-ene-1-carbonitrile] | 27 |
| CCn1cc(-c2cc(F)cnc2C2(OC)C=C(C#N)C(=O)C(C)(C)C2)cn1 (single isomer, unassigned) [Compound 86, 3-[3-(1-ethylpyrazol-4-yl)-5-fluoro-2-pyridyl]-3-methoxy-5,5-dimethyl-6-oxo-cyclohexene-1-carbonitrile] | 9 |
| COC1(c2ncc(F)cc2-c2ccnnc2)C=C(C#N)C(=O)C(C)(C)C1 (single isomer, unassigned) [Compound 220, 3-[5-fluoro-3-(pyridazin-4-yl)pyridin-2-yl]-3-methoxy-5,5-dimethyl-6-oxocyclohex-1-ene-1-carbonitrile] | 10 |
| COc1ncc(C)cc1-c1cc(F)cnc1C1(OC)C=C(C#N)C(=O)C(C)(C)C1 (single isomer, unassigned) [Compound 234, 3-(5-fluoro-2′-methoxy-5′-methyl[3,3′-bipyridin]-2-yl)-3-methoxy-5,5-dimethyl-6-oxocyclohex-1-ene-1-carbonitrile] | 9 |
| COC1(c2ncc(F)cc2-c2cnc(C)nc2)C=C(C#N)C(=O)C(C)(C)C1 (centres unmarked) [Compound 183, 3-[5-fluoro-3-(2-methylpyrimidin-5-yl)pyridin-2-yl]-3-methoxy-5,5-dimethyl-6-oxocyclohex-1-ene-1-carbonitrile] | 121 |
| COC1(c2ncc(F)cc2-c2ccnc(C(F)(F)F)c2)C=C(C#N)C(=O)C(C)(C)C1 (single isomer, unassigned) [Compound 236, 3-[5-fluoro-2′-(trifluoromethyl)[3,4′-bipyridin]-2-yl]-3-methoxy-5,5-dimethyl-6-oxocyclohex-1-ene-1-carbonitrile] | 17 |
| COC1(c2nccs2)C=C(C#N)C(=O)C(C)(C)C1 (centres unmarked) [Compound 144, 3-methoxy-5,5-dimethyl-6-oxo-3-(1,3-thiazol-2-yl)cyclohex-1-ene-1-carbonitrile] | 389 |
| COC1(c2ncccc2-c2cnn(C)c2)C=C(C#N)C(=O)C(C)(C)C1 (single isomer, unassigned) [Compound 23, 3-methoxy-5,5-dimethyl-3-(3-(1-methyl-1H-pyrazol-4-yl)pyridin-2-yl)-6-oxocyclohex-1-enecarbonitrile] | 56 |
| COC1(c2ccccn2)C=C(C#N)C(=O)C2(CC2)C1 (centres unmarked) [Compound 135, 7-methoxy-4-oxo-7-(pyridin-2-yl)spiro[2.5]oct-5-ene-5-carbonitrile] | 244 |
| COC1(c2ncccc2C(F)(F)F)C=C(C#N)C(=O)C2(CCCC2)C1 (centres unmarked) [Compound 148, 9-methoxy-6-oxo-9-[3-(trifluoromethyl)pyridin-2-yl]spiro[4.5]dec-7-ene-7-carbonitrile] | 252 |
| CCOC1(c2ccc(F)cn2)C=C(C#N)C(=O)C(C)(C)C1 (centres unmarked) [Compound 145, 3-ethoxy-3-(5-fluoropyridin-2-yl)-5,5-dimethyl-6-oxocyclohex-1-ene-1-carbonitrile] | 65 |
| COC1(c2ncc(F)cc2-c2cccc(=O)[nH]2)C=C(C#N)C(=O)C(C)(C)C1 (centres unmarked) [Compound 193, 3-(5′-fluoro-6-oxo[1,6-dihydro[2,3′-bipyridine]]-2′-yl)-3-methoxy-5,5-dimethyl-6-oxocyclohex-1-ene-1-carbonitrile] | > 10000 |
| COC1(c2ncc(F)cc2C)C=C(C#N)C(=O)C(C)(C)C1 (single isomer, unassigned) [Compound 31, 3-(5-fluoro-3-methylpyridin-2-yl)-3-methoxy-5,5-dimethyl-6-oxocyclohex-1-enecarbonitrile] | 19 |
| COC1(c2nc(C)cs2)C=C(C#N)C(=O)C(C)(C)C1 (single isomer, unassigned) [Compound 36, 3-methoxy-5,5-dimethyl-3-(4-methylthiazol-2-yl)-6-oxocyclohex-1-enecarbonitrile] | 96 |
| COC1(c2ncc(F)cc2-c2cnn(-c3ccccc3)c2)C=C(C#N)C(=O)C(C)(C)C1 (single isomer, unassigned) [Compound 81, 3-[5-fluoro-3-(1-phenylpyrazol-4-yl)-2-pyridyl]-3-methoxy-5,5-dimethyl-6-oxo-cyclohexene-1-carbonitrile] | 2 |
| COC1(c2cccc(-c3ccccc3F)n2)C=C(C#N)C(=O)C(C)(C)C1 (centres unmarked) [Compound 118, 3-[6-(2-fluorophenyl)pyridin-2-yl)-3-methoxy-5,5-dimethyl-6-oxocyclohex-1-ene-1-carbonitrile] | 355 |
